One assay concerns the target T1, human SGLT1 (Homo sapiens, UniProt P13866).
T1 construct: expressed in transfected cells; host or cells: CHO-k1
T1 sequence (P13866 1-664): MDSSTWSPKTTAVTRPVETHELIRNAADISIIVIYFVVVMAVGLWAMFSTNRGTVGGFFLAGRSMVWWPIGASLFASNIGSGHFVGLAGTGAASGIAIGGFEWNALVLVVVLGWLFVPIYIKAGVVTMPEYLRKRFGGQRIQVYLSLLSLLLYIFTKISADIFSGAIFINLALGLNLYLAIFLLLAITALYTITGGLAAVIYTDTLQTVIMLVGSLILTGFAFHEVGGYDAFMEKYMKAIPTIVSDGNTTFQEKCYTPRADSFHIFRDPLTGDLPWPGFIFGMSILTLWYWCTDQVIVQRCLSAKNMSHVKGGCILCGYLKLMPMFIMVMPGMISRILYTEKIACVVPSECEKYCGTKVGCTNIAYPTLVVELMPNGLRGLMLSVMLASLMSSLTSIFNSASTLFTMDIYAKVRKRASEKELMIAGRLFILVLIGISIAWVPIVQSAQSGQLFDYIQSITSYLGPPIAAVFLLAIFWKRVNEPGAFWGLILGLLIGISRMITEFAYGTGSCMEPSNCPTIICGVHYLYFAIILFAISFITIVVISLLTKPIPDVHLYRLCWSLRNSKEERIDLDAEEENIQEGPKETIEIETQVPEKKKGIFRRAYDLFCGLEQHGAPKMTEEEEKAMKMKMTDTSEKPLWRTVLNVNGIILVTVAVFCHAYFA
As to the kind of experiment: Inhibition test of sodium-dependent sugar uptake in CHO-k1 cells stably expressing human SGLT1. The format is cell-based. As to conditions: for SGLT1 % inhibition at 100 nM: sugar uptake inhibition rate at 100 nM test compound vs control group; for IC50: CHO-k1 cells expressing human SGLT1, [14C]methyl α-D-glucopyranoside uptake, 37° C., 30 minutes. The method, then: (§1) An SGLT1 sequence (NM_000343) was reverse-transcripted from human small intestinal mRNA, then amplified, and then introduced into pCMV-tag5A from Stratagene Corporation. An SGLT2 sequence (NM_003041) was prepared from human nephric mRNA as with the above method, and then introduced into pcDNA3.1+hygro from Invitrogen Corporation. Each cloned sequence was confirmed to be identical with the reported sequence.
(§2) The human SGLT1 and human SGLT2 expression vectors were transfected into CHO-k1 cells by using Lipofectamine 2000 from Invitrogen Corporation. The SGLT expression cells were incubated in the presence of Geneticin (SGLT1) or Hygromycin B (SGLT2) at a 500 μg/mL concentration to select resistant strains, and specific activity of sugar uptake was obtained as an indicator by the following system.
(§3) Cells stably expressing human SGLT1 and human SGLT2 were used for the inhibition test of sodium-dependent glucose uptake.
(§4) The cells were incubated in a pretreatment buffer A (200 μL for SGLT1, and 2 mL for SGLT2) for 20 minutes. The pretreatment buffer was removed and an uptake buffer B (75 μL for SGLT1, and 200 μL for SGLT2) containing a test compound was added to conduct an uptake reaction at 37° C. for 30 minutes (SGLT1) or an hour (SGLT2). After the reaction, the cells were washed with a washing buffer C twice (200 μL for SGLT1, and 2 mL for SGLT2), and then dissolved in a 0.2 M solution of NaOH (75 μL for SGLT1, and 400 μL for SGLT2). After a liquid scintilater was added thereto and mixed sufficiently, radioactivity was measured with microBETA (SGLT1) or a liquid scintillation counter from Beckman Coulter, Inc (SGLT2). As a control group, an uptake buffer containing no test compound was prepared. In addition, as the basic uptake buffer, an uptake buffer B containing choline chloride instead of NaCl was prepared. • A pretreatment buffer A: 140 mM choline chloride, 2 mM KCl, 1 mM CaCl2, 1 mM MgCl2, 10 mM HEPES/5 mM Tris, pH 7.4. • An uptake buffer B: 1 mM of methyl α-D-glucopyranoside containing [^14C]methyl α-D-glucopyranoside, 140 mM NaCl, 2 mM KCl, 1 mM CaCl2, 1 mM MgCl2, 10 mM HEPES/5 mM Tris, pH 7.4. • A washing buffer C: 10 mM methyl α-D-glucopyranoside, 140 mM choline chloride, 2 mM KCl, 1 mM CaCl2, 1 mM MgCl2, 10 mM HEPES/5 mM Tris, pH 7.4.
(§5) In order to obtain IC50 values, test compounds having adequate 6 concentrations were used and the test compound concentrations (IC50 values) at which sugar uptake is inhibited by 50% in comparison with the amount of sugar uptake (100%) of the control group were calculated.
(§6) In addition, the sugar uptake inhibition rates at 100 nM concentration of the test compound in comparison with the control group are shown in Table 7.

Another assay addresses T2, human SGLT2 (Homo sapiens, UniProt P31639).
T2 construct: expressed in transfected cells; host or cells: CHO-k1
T2 sequence (P31639 1-672): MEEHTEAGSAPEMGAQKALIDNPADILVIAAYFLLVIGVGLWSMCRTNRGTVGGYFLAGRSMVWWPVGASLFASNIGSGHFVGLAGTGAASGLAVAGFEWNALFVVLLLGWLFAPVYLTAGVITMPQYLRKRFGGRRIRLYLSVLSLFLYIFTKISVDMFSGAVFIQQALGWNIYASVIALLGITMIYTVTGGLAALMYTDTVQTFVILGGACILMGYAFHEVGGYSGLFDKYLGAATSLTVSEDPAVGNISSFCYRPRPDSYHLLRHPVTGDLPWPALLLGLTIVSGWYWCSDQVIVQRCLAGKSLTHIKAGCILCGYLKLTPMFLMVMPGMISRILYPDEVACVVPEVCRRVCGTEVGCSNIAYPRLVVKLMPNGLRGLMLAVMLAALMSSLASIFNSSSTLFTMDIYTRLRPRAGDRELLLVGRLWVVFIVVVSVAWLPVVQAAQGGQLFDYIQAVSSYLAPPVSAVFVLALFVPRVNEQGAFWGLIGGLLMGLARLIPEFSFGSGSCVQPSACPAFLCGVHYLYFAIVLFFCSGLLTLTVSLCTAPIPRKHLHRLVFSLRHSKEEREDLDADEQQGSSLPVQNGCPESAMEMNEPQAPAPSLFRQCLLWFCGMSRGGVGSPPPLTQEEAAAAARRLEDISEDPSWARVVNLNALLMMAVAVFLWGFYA
As to the kind of experiment: Inhibition test of sodium-dependent sugar uptake in CHO-k1 cells stably expressing human SGLT2. The format is cell-based. As to conditions: for SGLT2 % inhibition at 100 nM: sugar uptake inhibition rate at 100 nM test compound vs control group; for IC50: CHO-k1 cells expressing human SGLT2, [14C]methyl α-D-glucopyranoside uptake, 37° C., an hour. The protocol:
as §1, §2, §3, §4, §5, §6

These results are taken from patent US7973012B2, “C-phenyl glycitol compound” (Taisho Pharmaceutical Co., Ltd, priority 2006, dated 2011).

The structures appear in SMILES notation.

On to `Cc1cc(O)c([C@@H]2O[C@H](CO)[C@@H](O)[C@H](O)[C@H]2O)cc1Cc1ccc(CCNC(=O)NCCN2CCCCC2)cc1` [Compound 67], for which the “SGLT1 % inhibition at 100 nM” value at human SGLT1 is given as 61%. The “SGLT2 % inhibition at 100 nM” value at human SGLT2 is listed as 82%.
For orientation: IC50 means the concentration that gives 50% inhibition. Higher therefore signals weaker potency in that assay. Turning to `Cc1cc(O)c([C@@H]2O[C@H](CO)[C@@H](O)[C@H](O)[C@H]2O)cc1Cc1ccc(CCNC(=O)NCCN2CCCC2)cc1` [Compound 30], the results for the IC50 at human SGLT1 and on human SGLT2 were 111 nM and 13 nM, respectively.
With `Cc1cc(O)c([C@@H]2O[C@H](CO)[C@@H](O)[C@H](O)[C@H]2O)cc1Cc1ccc(CCNC(=O)NC(CO)C(C)C)cc1` (stereo partly drawn) [Compound 43], the “SGLT1 % inhibition at 100 nM” value on human SGLT1 is given as 77%. For the same compound, the “SGLT2 % inhibition at 100 nM” value on human SGLT2 is listed as 86%.
Consider `COC(=O)CCNC(=O)NCCc1ccc(Cc2cc([C@@H]3O[C@H](CO)[C@@H](O)[C@H](O)[C@H]3O)c(O)cc2C)cc1` [Compound 32], for which the IC50 against human SGLT1 came out at 245 nM; against human SGLT2, 44 nM.
For `Cc1cc(O)c([C@@H]2O[C@H](CO)[C@@H](O)[C@H](O)[C@H]2O)cc1Cc1ccc(CCNC(=O)N2CCC(C)CC2)cc1` [Compound 36] the same measures were 94 nM and 34 nM.
On to `Cc1cc(O)c([C@@H]2O[C@H](CO)[C@@H](O)[C@H](O)[C@H]2O)cc1Cc1ccc(CCNC(=O)NC(Cc2ccccc2)C(N)=O)cc1` (stereo partly drawn) [Compound 60], for which the “SGLT1 % inhibition at 100 nM” value at human SGLT1 was found to be 66%. Further, at human SGLT2, the “SGLT2 % inhibition at 100 nM” value turned out to be 91%.
Regarding `Cc1cc(O)c([C@@H]2O[C@H](CO)[C@@H](O)[C@H](O)[C@H]2O)cc1Cc1ccc(CCNC(=O)NCC2OCCO2)cc1` [Compound 64], the “SGLT1 % inhibition at 100 nM” value at human SGLT1 is listed as 62%. In addition, on human SGLT2, the “SGLT2 % inhibition at 100 nM” value was 76%.
On to `COc1ccc(CCNC(=O)NCCc2ccc(Cc3cc([C@@H]4O[C@H](CO)[C@@H](O)[C@H](O)[C@H]4O)c(O)cc3C)cc2)cc1OC` [Compound 55], for which the “SGLT1 % inhibition at 100 nM” value at human SGLT1 stood at 69%. Also, on human SGLT2, the “SGLT2 % inhibition at 100 nM” value was determined as 69%.
Take `Cc1cc(O)c([C@@H]2O[C@H](CO)[C@@H](O)[C@H](O)[C@H]2O)cc1Cc1ccc(CCNC(=O)NCc2ccccc2)cc1` [Compound 68]: the “SGLT1 % inhibition at 100 nM” value on human SGLT1 is reported as 60%. Moreover, at human SGLT2, the “SGLT2 % inhibition at 100 nM” value was found to be 83%.
On to `Cc1cc(O)c([C@@H]2O[C@H](CO)[C@@H](O)[C@H](O)[C@H]2O)cc1Cc1ccc(CCNC(=O)NCC(c2ccccc2)c2ccccc2)cc1` [Compound 53], for which, on human SGLT1, the “SGLT1 % inhibition at 100 nM” value amounted to 70%. Also, the “SGLT2 % inhibition at 100 nM” value at human SGLT2 came out at 74%.
In the same order, the values of `Cc1cc(O)c([C@@H]2O[C@H](CO)[C@@H](O)[C@H](O)[C@H]2O)cc1Cc1ccc(CCNC(=O)NCCc2ccc(F)cc2)cc1` [Compound 52] are 71% and 84%.
In the same order, the values of `Cc1cc(O)c([C@@H]2O[C@H](CO)[C@@H](O)[C@H](O)[C@H]2O)cc1Cc1ccc(CCNC(=O)N[C@@H](Cc2ccccc2)C(N)=O)cc1` [Compound 40] are 79% and 89%.
`CSCCNC(=O)NCCc1ccc(Cc2cc([C@@H]3O[C@H](CO)[C@@H](O)[C@H](O)[C@H]3O)c(O)cc2C)cc1` [Compound 29]: the IC50 at human SGLT1 was 75 nM; against human SGLT2, 17 nM.
In the case of `Cc1cc(O)c([C@@H]2O[C@H](CO)[C@@H](O)[C@H](O)[C@H]2O)cc1Cc1ccc(CCNC(=O)NC2C3CC4CC(C3)CC2C4)cc1` (stereo partly drawn) [Compound 123], on human SGLT1, the “SGLT1 % inhibition at 100 nM” value worked out at 78%. Further, at human SGLT2, the “SGLT2 % inhibition at 100 nM” value came to 87%.
For `COc1ccc(CCN(C)C(=O)NCCc2ccc(Cc3cc([C@@H]4O[C@H](CO)[C@@H](O)[C@H](O)[C@H]4O)c(O)cc3C)cc2)cc1OC` [Compound 57] the same measures were 68% and 51%.
In the same order, the values of `Cc1cc(O)c([C@@H]2O[C@H](CO)[C@@H](O)[C@H](O)[C@H]2O)cc1Cc1ccc(CCNC(=O)NC2CCCC2)cc1` [Compound 125] are 68% and 90%.
As to `Cc1cc(O)c([C@@H]2O[C@H](CO)[C@@H](O)[C@H](O)[C@H]2O)cc1Cc1ccc(CCNC(=O)N[C@@H](CC(C)C)C(N)=O)cc1` [Compound 24], the figures for the IC50 at human SGLT1 and on human SGLT2 were 37 nM and 25 nM, respectively.
`Cc1cc(O)c([C@@H]2O[C@H](CO)[C@@H](O)[C@H](O)[C@H]2O)cc1Cc1ccc(CCNC(=O)N(CC(C)C)CC(C)C)cc1` [Compound 59]: the “SGLT1 % inhibition at 100 nM” value at human SGLT1 was 67%. Besides, the “SGLT2 % inhibition at 100 nM” value at human SGLT2 was found to be 86%.
Regarding `Cc1cc(O)c([C@@H]2O[C@H](CO)[C@@H](O)[C@H](O)[C@H]2O)cc1Cc1ccc(CCNC(=O)NCc2ccco2)cc1` [Compound 42], the “SGLT1 % inhibition at 100 nM” value on human SGLT1 is reported as 78%. The “SGLT2 % inhibition at 100 nM” value on human SGLT2 came to 87%.
In the same order, the values of `Cc1cc(O)c([C@@H]2O[C@H](CO)[C@@H](O)[C@H](O)[C@H]2O)cc1Cc1ccc(CCNC(=O)NC(C)(C)C)cc1` [Compound 39] are 80% and 83%.
As to `COC(=O)CNC(=O)NCCc1ccc(Cc2cc([C@@H]3O[C@H](CO)[C@@H](O)[C@H](O)[C@H]3O)c(O)cc2C)cc1` [Compound 21], the values for the IC50 on human SGLT1 and against human SGLT2 were 75 nM and 34 nM, respectively.
In the same order, the values of `Cc1cc(O)c([C@@H]2O[C@H](CO)[C@@H](O)[C@H](O)[C@H]2O)cc1Cc1ccc(CCNC(=O)NC2CCCc3ccccc32)cc1` (stereo partly drawn) [Compound 35] are 83 nM and 34 nM.
Turning to `Cc1cc(O)c([C@@H]2O[C@H](CO)[C@@H](O)[C@H](O)[C@H]2O)cc1Cc1ccc(CCNC(=O)NCCc2ccc(O)cc2)cc1` [Compound 63], the “SGLT1 % inhibition at 100 nM” value at human SGLT1 is 63%. The “SGLT2 % inhibition at 100 nM” value on human SGLT2 was 81%.
For `Cc1cc(O)c([C@@H]2O[C@H](CO)[C@@H](O)[C@H](O)[C@H]2O)cc1Cc1ccc(CCNC(=O)N[C@H](CO)Cc2ccccc2)cc1` [Compound 48] the same measures were 73% and 87%.
